Test results as given in article PMC5515969, “Effects of 31 FDA approved small-molecule kinase inhibitors on isolated rat liver mitochondria” (Archives of Toxicology, 2016).
Like-named read-outs stand apart in the source and are kept apart here. Marks after values point to notes of the source that are not given here.

Columns and labels:
[1] = tested on: isolated rat liver mitochondria
RCC III = RCC III activity in submitochondrial particles; type: biochemical, rat; parameters: key to RCC III at 100XCmax: activity relative to DMSO-treated controls (control set as 1 = 100%); details: for RCC activity III: 15 min, DMSO-treated = 100
Summary of the method: (§1)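 Inhibitors preincubated 15 min with submitochondrial particles (1 mg/ml) before activity readout. RCC I (rotenone-sensitive fraction) and I/V: A340, and RCC II: A600, each every 1 min for 6 min; RCC III/IV: A550 every 10 s for 2 min. Activities relative to DMSO control set as 1.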

[2] = cited from earlier work
RCC I = RCC I activity in submitochondrial particles; type: biochemical, rat; parameters: key to RCC I at 10XCmax / RCC I at 100XCmax / RCC I at 50XCmax / RCC I at 30XCmax / RCC I at 20XCmax: activity relative to DMSO-treated controls (control set as 1 = 100%); details: for RCC activity I: 15 min
Summary of the method: as §1

[3] = tested on: isolated rat liver mitochondria; test: Mitochondrial ROS production (CM-H2DCFDA)
[4] = tested on: isolated rat liver mitochondria; test: Mitochondrial inner membrane potential (MMP), Rhodamine 123; type: biochemical
Source text: Fig. 3 KI effects on mitochondrial inner membrane potential (MMP). […] In a, c, data are means and standard derivations from three separate experiments. *p < 0.05 as compared to DMSO-treated samples at the end of experiments. In b, data are means of two independent experiments

[5] = tested on: isolated rat liver mitochondria; test: Mitochondrial oxygen consumption (glutamate/malate or succinate driven, state 4 and state 3); type: biochemical; details: for Glutamate/malate driven respiration State 3 / Glutamate/malate driven respiration State 4 / Succinate-driven respiration State 3 / Succinate-driven respiration State 4: oxygen consumption, DMSO-treated = 1; for State 3 respiration driven by succinate at 10XCmax: key: 0 indicates that the drug had no effects (negative); for State 3 respiration driven by succinate at 1XCmax: key: 0 indicates that the drug had no effects (negative)
Summary of the method: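 Rat liver mitochondria (1 mg/ml protein) exposed 5 min to kinase inhibitors in 0.1% DMSO, then O2 consumption measured by Clark-type electrode with glutamate/malate or succinate (state 4), ADP added after 3 min (state 3). Rates normalized to 0.1% DMSO controls set to 1.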

RCC II = biological target: T1, RCC II (Rattus norvegicus, UniProt P21913+Q641Z9+Q6PCT8+Q920L2); test: RCC II activity in submitochondrial particles; type: biochemical; parameters: key: activity relative to DMSO-treated controls (control set as 1 = 100%); details: DMSO treated samples set as 1
T1 construct: Submitochondrial particles were prepared by subjecting the intact mitochondria to three successive freeze–thaw cycles; from tissue; host or cells: rat liver mitochondria, used as submitochondrial particles
Summary of the method: as §1

RCC IV = RCC IV activity in submitochondrial particles; type: biochemical, rat; parameters: key to RCC IV at 50XCmax / RCC IV at 100XCmax: activity relative to DMSO-treated controls (control set as 1 = 100%); details: for RCC activity IV: 15 min, DMSO-treated = 100
Summary of the method: as §1

[6] = 10XCmax, DMSO treated samples set as 1
[7] = 1XCmax, DMSO treated samples set as 1
[8] = 2.5XCmax, DMSO treated samples set as 1
[9] = 5XCmax, DMSO treated samples set as 1
[10] = 20XCmax, DMSO treated samples set as 1
[11] = 30XCmax, DMSO treated samples set as 1
[12] = 50XCmax, DMSO treated samples set as 1
[13] = 100XCmax, DMSO treated samples set as 1

T1 sequence (Q920L2 35-656): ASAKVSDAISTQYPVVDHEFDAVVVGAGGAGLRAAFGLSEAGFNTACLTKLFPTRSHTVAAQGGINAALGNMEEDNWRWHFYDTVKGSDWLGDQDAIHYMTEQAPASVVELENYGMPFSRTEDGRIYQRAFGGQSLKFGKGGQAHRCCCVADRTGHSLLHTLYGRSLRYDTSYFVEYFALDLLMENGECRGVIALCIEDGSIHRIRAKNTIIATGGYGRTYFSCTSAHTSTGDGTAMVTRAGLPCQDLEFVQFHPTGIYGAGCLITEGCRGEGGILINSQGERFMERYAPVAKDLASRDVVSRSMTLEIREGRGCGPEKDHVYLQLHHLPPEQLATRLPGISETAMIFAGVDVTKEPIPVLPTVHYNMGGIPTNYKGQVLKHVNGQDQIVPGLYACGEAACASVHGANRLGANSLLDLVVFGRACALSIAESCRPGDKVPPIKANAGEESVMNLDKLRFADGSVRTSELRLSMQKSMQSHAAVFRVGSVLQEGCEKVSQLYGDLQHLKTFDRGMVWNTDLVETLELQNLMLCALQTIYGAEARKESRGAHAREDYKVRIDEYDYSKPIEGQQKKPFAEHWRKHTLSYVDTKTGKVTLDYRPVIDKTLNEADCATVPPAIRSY
T1 sequence (P21913 31-282): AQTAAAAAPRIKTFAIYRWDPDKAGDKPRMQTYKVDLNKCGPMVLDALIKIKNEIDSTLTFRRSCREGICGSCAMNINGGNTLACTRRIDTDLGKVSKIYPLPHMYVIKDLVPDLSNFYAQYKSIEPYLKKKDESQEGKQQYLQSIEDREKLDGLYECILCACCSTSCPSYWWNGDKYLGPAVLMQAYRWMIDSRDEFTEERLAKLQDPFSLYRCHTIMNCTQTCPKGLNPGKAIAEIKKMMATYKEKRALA
T1 sequence (Q641Z9 1-169): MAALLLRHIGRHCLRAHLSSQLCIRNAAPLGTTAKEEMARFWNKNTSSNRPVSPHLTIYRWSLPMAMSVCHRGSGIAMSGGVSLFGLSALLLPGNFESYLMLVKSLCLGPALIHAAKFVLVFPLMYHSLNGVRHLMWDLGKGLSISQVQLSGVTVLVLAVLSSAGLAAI
T1 sequence (Q6PCT8 57-159): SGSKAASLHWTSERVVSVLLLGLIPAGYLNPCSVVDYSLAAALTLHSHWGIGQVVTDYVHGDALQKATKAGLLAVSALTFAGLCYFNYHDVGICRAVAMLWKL

## Cc1cc(Nc2ncc(Cl)c(Nc3ccccc3S(=O)(=O)C(C)C)n2)c(OC(C)C)cc1C1CCNCC1 [Ceritinib]
[1]; 1XCmax, positive control alamethicin treated samples
  Cytochrome c release 1XCmax: 0
[1]; 2.5XCmax, positive control alamethicin treated samples
  Cytochrome c release 2.5XCmax: 0
[1]; 5XCmax, positive control alamethicin treated samples
  Cytochrome c release 5XCmax: 0
[1]; 10XCmax, positive control alamethicin treated samples
  Cytochrome c release 10XCmax: 0
[1]; 20XCmax, positive control alamethicin treated samples
  Cytochrome c release 20XCmax: 0
[1]; 30XCmax, positive control alamethicin treated samples
  Cytochrome c release 30XCmax: 0
[1]; 50XCmax, positive control alamethicin treated samples
  Cytochrome c release 50XCmax: 11.93±0.58 percentage of the positive control group
[1]; 100-fold Cmax, alamethicin = 100
  total cytochrome c leaked after treatment: 33%
[1]; 100XCmax, positive control alamethicin treated samples
  Cytochrome c release 100XCmax: 32.92±4.32 percentage of the positive control group
[1]; rat, 30 min, pH 7.4
  lowest concentration causing cytochrome c release: 50 fold Cmax
RCC III; 50-fold Cmax
  RCC activity III: 103.80 ± 5.19 % of control
RCC III; 100-fold Cmax
  RCC activity III: 68.48 ± 6.59 % of control
RCC III; 100XCmax
  RCC III at 100XCmax: 68.48±6.59
[2]; human therapeutic Cmax at FDA recommended dosages, ref product labeling and drug approval packages at the official FDA website
  Cmax: 1.81 µM
[2]; human therapeutic maximal blood concentration, ref product labeling
  Cmax (ng or µg/ml): 1.01 µg/mL
[2]; read-out: Cmax at µM, human therapeutic maximal blood concentration, ref product labeling
  Cmax: 1.81 µM
RCC I; [6]
  RCC I at 10XCmax: 0
RCC I; 50-fold Cmax, DMSO-treated = 100
  RCC activity I: 94.04 ± 3.32 % of control
RCC I; 100-fold Cmax, DMSO-treated = 100
  RCC activity I: 63.74 ± 13.12 % of control
RCC I; 100XCmax, DMSO-treated = 100
  RCC I at 100XCmax: 63.74±13.12
[3]
  lowest concentration triggering ROS overproduction: 50 fold Cmax
[3]; [7]
  ROS measured by CM-H2DCFDA at 1XCmax: 0
[3]; [8]
  ROS measured by CM-H2DCFDA at 2.5XCmax: 0
[3]; [9]
  ROS measured by CM-H2DCFDA at 5XCmax: 0
[3]; [6]
  ROS measured by CM-H2DCFDA at 10XCmax: 0
[3]; [10]
  ROS measured by CM-H2DCFDA at 20XCmax: 0
[3]; [11]
  ROS measured by CM-H2DCFDA at 30XCmax: 0
[3]; [12]
  ROS measured by CM-H2DCFDA at 50XCmax: 2.51±0.21
[3]; [13]
  ROS measured by CM-H2DCFDA at 100XCmax: 1.93±0.49
[3]; highest tested concentrations
  effect on ROS production: significantly ROS production
[4]
  lowest concentration decreasing MMP: 100 fold Cmax
[4]; 1XCmax, difference in signal between KI and DMSO treated samples at the end of experiments
  MMP measured by Rhodamine 123 at 1XCmax: 0
[4]; 2.5XCmax, difference in signal between KI and DMSO treated samples at the end of experiments
  MMP measured by Rhodamine 123 at 2.5XCmax: 0
[4]; 5XCmax, difference in signal between KI and DMSO treated samples at the end of experiments
  MMP measured by Rhodamine 123 at 5XCmax: 0
[4]; 10XCmax, difference in signal between KI and DMSO treated samples at the end of experiments
  MMP measured by Rhodamine 123 at 10XCmax: 0
[4]; 20XCmax, difference in signal between KI and DMSO treated samples at the end of experiments
  MMP measured by Rhodamine 123 at 20XCmax: 0
[4]; 30XCmax, difference in signal between KI and DMSO treated samples at the end of experiments
  MMP measured by Rhodamine 123 at 30XCmax: 0
[4]; 50XCmax, difference in signal between KI and DMSO treated samples at the end of experiments
  MMP measured by Rhodamine 123 at 50XCmax: 0
[4]; 100XCmax, difference in signal between KI and DMSO treated samples at the end of experiments
  MMP measured by Rhodamine 123 at 100XCmax: 4568±757*
[4]; up to 100-fold Cmax or highest testable concentration
  effect on MMP: decrease in MMP
[5]; [7]
  State 3 respiration driven by glutamate/malate at 1XCmax: 0
  State 3 respiration driven by succinate at 1XCmax: 0
  State 4 respiration driven by glutamate/malate at 1XCmax: 0
  State 4 respiration driven by succinate at 1XCmax: 0
[5]; [8]
  State 3 respiration driven by glutamate/malate at 2.5XCmax: 0
  State 3 respiration driven by succinate at 2.5XCmax: 0
  State 4 respiration driven by glutamate/malate at 2.5XCmax: 0
  State 4 respiration driven by succinate at 2.5XCmax: 0
[5]; [9]
  State 3 respiration driven by glutamate/malate at 5XCmax: 0
  State 3 respiration driven by succinate at 5XCmax: 0
  State 4 respiration driven by glutamate/malate at 5XCmax: 0
  State 4 respiration driven by succinate at 5XCmax: 0
[5]; [6]
  State 3 respiration driven by glutamate/malate at 10XCmax: 0
  State 3 respiration driven by succinate at 10XCmax: 0
  State 4 respiration driven by glutamate/malate at 10XCmax: 0
  State 4 respiration driven by succinate at 10XCmax: 0
[5]; [10]
  State 3 respiration driven by glutamate/malate at 20XCmax: 0
  State 3 respiration driven by succinate at 20XCmax: 0
  State 4 respiration driven by glutamate/malate at 20XCmax: 0
  State 4 respiration driven by succinate at 20XCmax: 0
[5]; 30-fold Cmax
  Glutamate/malate driven respiration State 3: 0.88 ± 0.05
  Glutamate/malate driven respiration State 4: 1.12 ± 0.13
  Succinate-driven respiration State 3: 0.41 ± 0.18
  Succinate-driven respiration State 4: 0.70 ± 0.12
[5]; [11]
  State 3 respiration driven by glutamate/malate at 30XCmax: 0
  State 3 respiration driven by succinate at 30XCmax: 0.41±0.18
  State 4 respiration driven by glutamate/malate at 30XCmax: 0
  State 4 respiration driven by succinate at 30XCmax: 0.70±0.12
[5]; 50-fold Cmax
  Glutamate/malate driven respiration State 3: 0.55 ± 0.03
  Glutamate/malate driven respiration State 4: 1.21 ± 0.12
  Succinate-driven respiration State 3: 0.45 ± 0.08
  Succinate-driven respiration State 4: 0.77 ± 0.07
[5]; [12]
  State 3 respiration driven by glutamate/malate at 50XCmax: 0.55±0.03
  State 3 respiration driven by succinate at 50XCmax: 0.45±0.08
  State 4 respiration driven by glutamate/malate at 50XCmax: 1.21±0.12
  State 4 respiration driven by succinate at 50XCmax: 0.77±0.07
[5]; 100-fold Cmax
  inhibition of mitochondrial oxygen consumption: ~100%
  Glutamate/malate driven respiration State 3: 0.08 ± 0.02
  Glutamate/malate driven respiration State 4: 0.50 ± 0.06
  Succinate-driven respiration State 3: 0.03 ± 0.02
  Succinate-driven respiration State 4: 0.17 ± 0.10
[5]; [13]
  State 3 respiration driven by glutamate/malate at 100XCmax: 0.08±0.02
  State 3 respiration driven by succinate at 100XCmax: 0.03±0.02
  State 4 respiration driven by glutamate/malate at 100XCmax: 0.50±0.06
  State 4 respiration driven by succinate at 100XCmax: 0.17±0.10
[5]; tested at 1 to 100-fold Cmax
  lowest concentration significantly affecting mitochondrial oxygen consumption: 30 fold Cmax
RCC II; 1.0XCmax
  RCC II at 1.0XCmax: 0
RCC II; 2.5XCmax
  RCC II at 2.5XCmax: 0
RCC II; 5XCmax
  RCC II at 5XCmax: 0
RCC II; 10XCmax
  RCC II at 10XCmax: 0
RCC II; 20XCmax
  RCC II at 20XCmax: 0
RCC II; 30XCmax
  RCC II at 30XCmax: 0
RCC II; 50XCmax
  RCC II at 50XCmax: 0
RCC II; 100XCmax
  RCC II at 100XCmax: 69.91±10.00
RCC IV; 50-fold Cmax
  RCC activity IV: 82.33 ± 3.68 % of control
RCC IV; 50XCmax, DMSO treated samples set as 1, in %
  RCC IV at 50XCmax: 82.33±3.68
RCC IV; 100-fold Cmax
  RCC activity IV: 71.46 ± 7.39 % of control
RCC IV; 100XCmax
  RCC IV at 100XCmax: 71.46±7.39
